Test results: article PMC12239253 (BMC Complementary Medicine and Therapies, 2025)

Molecular target: glycoprotein B (gB) (Human alphaherpesvirus 1 strain 17, UniProt P10211)
Test: surface plasmon resonance
Format: binding

- Kd: 4.26 µM
Structure (SMILES): C=C1CC/C=C(\C)CC[C@@H]2[C@@H]1CC2(C)C [BCP, β-caryophyllene]
